What follows are molecules tested against CDK12 complexed with Cyclin K (Homo sapiens (Human), UniProt Q9NYV4) (assay: CDK enzymatic assay (HTRF, LANCE Ultra kinase assay)). Conditions: 60 minutes pre-incubation, 1 mM ATP.
Format: biochemical
Procedure: The following activity of the CDK enzymes in complex with their respective cyclins we assayed: CDK1 complexed with Cyclin B1; CDK2 complexed with Cyclin E1; CDK4 complexed with Cyclin D1; CDK6 complexed with Cyclin D1; CDK6 complexed with Cyclin D3; CDK9 complexed with Cyclin T1; CDK7 complexed with Cyclin H/MAT1; CDK2 complexed with Cyclin A2; CDK5 complexed with p35; CDK12 complexed with Cyclin K; CDK13 complexed with Cyclin K. These in vitro enzyme activity are assayed using homogeneous time-resolved energy transfer (HTRF), which measures phosphorylation of a peptide substrate. The LANCE® Ultra kinase assay (PerkinElmer) uses a ULight™-labeled EIF4E-binding protein 1 (THR37/46) peptide (DYSTTPGGTLFSTTPGTRI) (SEQ ID NO: 1) substrate and a Europium-labeled anti-phospho-4E-BP1 antibody (CDK2, CDK1, CDK4, CDK6, CDK9, CDK12, CDK13) or ULight™-labeled Myelin Basic Protein peptide (VTPRTPPP) (SEQ ID NO: 2) substrate and a Europium-labeled anti-phospho-MBP antibody (CDK7). Each CDK enzyme activity assays utilized human CDK co-expressed as N-terminal GST-tagged protein with its full length cyclin partner using a baculovirus expression system.
Enzyme was pre-incubated with compounds for 30 minutes (CDK1,2,4,6,9) or 60 minutes (CDK7, CDK12, CDK13) prior to addition of ATP and Ulight-peptide (1 mM and 50 nM final, respectively), in assay buffer containing 50 mM HEPES pH 7.5, 1 mM EGTA, 10 mM MgCl2, 2 mM DTT, 0.05 mg/mL BSA, and 0.01% Tween 20.
The reaction was then incubated for 60-90 minutes at room temperature. The reactions were stopped by the addition of EDTA and Europium labeled antibody, for a final concentration of 15 mM and 1.0-1.5 nM, respectively. HTRF signals were read after 15-120 minutes. A ratio of fluorescence transferred to the labeled substrate (665 nm) relative to fluorescence of the Europium donor (620 nm) represents the extent of phosphorylation. Ratios for treated wells were normalized to DMSO only (100% activity) and no enzyme (0% activity) controls. Normalized data was analyzed using a three or four parameter dose response curve to determine IC50 for each compound and are shown in Table A. Control reference inhibitors were included on each plate.

CDK12 complexed with Cyclin K, sequence (Q9NYV4 whole entry): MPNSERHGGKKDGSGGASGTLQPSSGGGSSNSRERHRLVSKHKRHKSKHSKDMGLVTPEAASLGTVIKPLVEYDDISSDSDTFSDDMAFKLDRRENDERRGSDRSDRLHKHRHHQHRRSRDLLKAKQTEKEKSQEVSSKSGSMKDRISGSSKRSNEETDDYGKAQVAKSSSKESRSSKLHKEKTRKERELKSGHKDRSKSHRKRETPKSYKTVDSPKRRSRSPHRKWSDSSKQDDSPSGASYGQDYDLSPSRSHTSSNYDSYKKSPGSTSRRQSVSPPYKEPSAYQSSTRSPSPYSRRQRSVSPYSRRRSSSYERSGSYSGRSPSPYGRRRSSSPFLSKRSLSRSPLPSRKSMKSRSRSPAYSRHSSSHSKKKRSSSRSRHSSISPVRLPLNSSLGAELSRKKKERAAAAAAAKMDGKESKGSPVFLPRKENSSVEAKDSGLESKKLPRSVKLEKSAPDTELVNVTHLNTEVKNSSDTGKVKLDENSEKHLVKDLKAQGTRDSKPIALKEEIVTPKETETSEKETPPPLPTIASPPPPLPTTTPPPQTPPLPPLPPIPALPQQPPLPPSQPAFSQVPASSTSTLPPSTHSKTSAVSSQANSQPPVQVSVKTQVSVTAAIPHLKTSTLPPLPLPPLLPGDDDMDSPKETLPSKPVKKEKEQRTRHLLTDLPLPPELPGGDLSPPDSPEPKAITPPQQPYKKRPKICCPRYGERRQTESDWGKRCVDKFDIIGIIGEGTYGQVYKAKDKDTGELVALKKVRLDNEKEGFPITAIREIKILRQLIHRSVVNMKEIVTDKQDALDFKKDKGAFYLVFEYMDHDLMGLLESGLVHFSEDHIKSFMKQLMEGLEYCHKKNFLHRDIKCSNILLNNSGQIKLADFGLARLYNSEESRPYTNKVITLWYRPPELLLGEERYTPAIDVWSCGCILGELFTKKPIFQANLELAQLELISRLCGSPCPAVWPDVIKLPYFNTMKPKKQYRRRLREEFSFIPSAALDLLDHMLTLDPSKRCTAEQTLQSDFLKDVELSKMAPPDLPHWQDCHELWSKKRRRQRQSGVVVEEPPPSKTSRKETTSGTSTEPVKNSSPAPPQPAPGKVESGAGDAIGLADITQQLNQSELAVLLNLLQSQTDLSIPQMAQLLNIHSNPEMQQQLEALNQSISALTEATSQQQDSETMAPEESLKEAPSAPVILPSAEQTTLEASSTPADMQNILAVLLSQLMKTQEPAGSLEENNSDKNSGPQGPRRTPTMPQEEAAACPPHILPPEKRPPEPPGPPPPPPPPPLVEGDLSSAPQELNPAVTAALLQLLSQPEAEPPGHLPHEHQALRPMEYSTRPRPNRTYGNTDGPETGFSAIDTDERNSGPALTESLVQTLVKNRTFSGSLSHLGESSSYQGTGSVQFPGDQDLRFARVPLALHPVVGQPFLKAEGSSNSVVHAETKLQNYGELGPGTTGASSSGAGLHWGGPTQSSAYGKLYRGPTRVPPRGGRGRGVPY
CDK12 complexed with Cyclin K, sequence (O75909 whole entry partner): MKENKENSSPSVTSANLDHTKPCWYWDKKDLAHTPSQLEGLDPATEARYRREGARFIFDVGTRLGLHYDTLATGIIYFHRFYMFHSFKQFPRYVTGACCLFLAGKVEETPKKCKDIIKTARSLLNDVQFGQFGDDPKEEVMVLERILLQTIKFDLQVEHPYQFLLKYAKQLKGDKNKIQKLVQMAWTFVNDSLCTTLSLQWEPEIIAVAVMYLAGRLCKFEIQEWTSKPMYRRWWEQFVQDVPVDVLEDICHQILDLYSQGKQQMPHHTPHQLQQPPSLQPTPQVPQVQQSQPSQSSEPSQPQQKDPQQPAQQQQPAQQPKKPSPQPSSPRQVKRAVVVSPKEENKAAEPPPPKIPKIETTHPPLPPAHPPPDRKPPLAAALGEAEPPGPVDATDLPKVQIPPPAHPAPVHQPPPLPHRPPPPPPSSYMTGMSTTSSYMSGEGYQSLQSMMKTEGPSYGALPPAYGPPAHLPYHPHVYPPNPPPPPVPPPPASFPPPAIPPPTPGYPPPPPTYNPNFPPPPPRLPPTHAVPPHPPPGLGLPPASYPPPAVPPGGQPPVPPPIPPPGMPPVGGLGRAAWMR

For `N#Cc1cc2ncn([C@H]3CCC[C@@H](Nc4ncc(C#N)c(-c5cnn(CC(F)F)c5)n4)C3)c2cn1` [Example 88, 3-((1S,3R)-3-((5-Cyano-4-(1-(2,2-difluoroethyl)-1H-pyrazol-4-yl)pyrimidin-2-yl)amino)cyclohexyl)-3H-imidazo[4,5-c]pyridine-6-carbonitrile], which IC50 is on record?
Its IC50 is under 50 nM.

With `N#Cc1cnc2c(ccn2[C@H]2CCC[C@@H](Nc3ncc(C(F)(F)F)c(-c4cnn(CC(F)F)c4)n3)C2)c1` [Example 15, 1-((1S,3R)-3-((4-(1-(2,2-Difluoroethyl)-1H-pyrazol-4-yl)-5-(trifluoromethyl)pyrimidin-2-yl)amino)cyclohexyl)-1H-pyrrolo[2,3-b]pyridine-5-carbonitrile] as the molecule, how does the IC50 read?
The IC50 was under 50 nM.

Which IC50 does the source give for `N#Cc1cc(C#N)c2c(c1)ncn2[C@H]1CCC[C@@H](Nc2ncc(C#N)c(-c3cnn(CC(F)F)c3)n2)C1` [Example 50, 1-((1S,3R)-3-((5-Cyano-4-(1-(2,2-difluoroethyl)-1H-pyrazol-4-yl)pyrimidin-2-yl)amino)cyclohexyl)-1H-benzo[d]imidazole-5,7-dicarbonitrile] here?
The IC50 was under 50 nM.

`N#Cc1ccc2c(c1)ncn2[C@H]1CCC[C@@H](Nc2ncc(C#N)c(-c3cnn(CC(F)F)c3)n2)C1` [Example 86, 1-((1S,3R)-3-((5-Cyano-4-(1-(2,2-difluoroethyl)-1H-pyrazol-4-yl)pyrimidin-2-yl)amino)cyclohexyl)-1H-benzo[d]imidazole-5-carbonitrile] was tested. Which IC50 did it give?
The IC50 was under 50 nM.

For `Cc1ccncc1-c1cnc2c(c1)ncn2[C@H]1CCC[C@@H](Nc2ncc(C#N)c(-c3cnn(CC(F)F)c3)n2)C1` [Example 77, 4-(1-(2,2-Difluoroethyl)-1H-pyrazol-4-yl)-2-(((1R,3S)-3-(6-(4-methylpyridin-3-yl)-3H-imidazo [4,5-b]pyridin-3-yl)cyclohexyl)amino)pyrimidine-5-carbonitrile], which IC50 is on record?
The IC50 was 50 to 500 nM.

For `N#Cc1cccc2ncn([C@H]3CCC[C@@H](Nc4ncc(C(F)(F)F)c(-c5cnn(CC(F)F)c5)n4)C3)c12` [Example 87, 1-((1S,3R)-3-((4-(1-(2,2-Difluoroethyl)-1H-pyrazol-4-yl)-5-(trifluoromethyl)pyrimidin-2-yl)amino)cyclohexyl)-1H-benzo[d]imidazole-7-carbonitrile], which IC50 is on record?
The IC50 was under 50 nM.

How did the IC50 turn out when `CN(C)c1cnc2c(c1)ncn2[C@H]1CCC[C@@H](Nc2ncc(C(F)(F)F)c(-c3cnn(CC(F)F)c3)n2)C1` [Example 84, 3-((1S,3R)-3-((4-(1-(2,2-Difluoroethyl)-1H-pyrazol-4-yl)-5-(trifluoromethyl)pyrimidin-2-yl)amino)cyclohexyl)-N,N-dimethyl-3H-imidazo[4,5-b]pyridin-6-amine] was run?
Its IC50 is under 50 nM.

With `Cc1ccnc2c1ncn2[C@H]1CCC[C@@H](Nc2ncc(C#N)c(-c3cnn(CC(F)F)c3)n2)C1` [Example 8, 4-(1-(2,2-Difluoroethyl)-1H-pyrazol-4-yl)-2-(((1R,3S)-3-(7-methyl-3H-imidazo[4,5-b]pyridin-3-yl)cyclohexyl)amino)pyrimidine-5-carbonitrile] as the molecule, how does the IC50 read?
Its IC50 is under 50 nM.

With `CCn1cc(-c2nc(N[C@@H]3CCC[C@H](n4cnc5cc(C#N)cnc54)C3)ncc2C#N)cn1` [Example 73, 3-((1S,3R)-3-((5-Cyano-4-(1-ethyl-1H-pyrazol-4-yl)pyrimidin-2-yl)amino)cyclohexyl)-3H-imidazo[4,5-b]pyridine-6-carbonitrile] as the molecule, how does the IC50 read?
The IC50 was under 50 nM.

Which IC50 does the source give for `N#Cc1cnc(N[C@@H]2CCC[C@H](n3cnc4cc(N5CCOCC5)cnc43)C2)nc1-c1cnn(CC(F)F)c1` [Example 76, 4-(1-(2,2-Difluoroethyl)-1H-pyrazol-4-yl)-2-(((1R,3S)-3-(6-morpholino-3H-imidazo[4,5-b]pyridin-3-yl)cyclohexyl)amino)pyrimidine-5-carbonitrile] here?
Its IC50 is under 50 nM.

For `Cc1cnc(-c2nc(N[C@@H]3CCC[C@H](n4cnc5cc(C#N)cnc54)C3)ncc2C#N)n1C` [Example 29, 3-((1S,3R)-3-((5-Cyano-4-(1,5-dimethyl-1H-imidazol-2-yl)pyrimidin-2-yl)amino)cyclohexyl)-3H-imidazo[4,5-b]pyridine-6-carbonitrile], which IC50 is on record?
Its IC50 is 50 to 500 nM.

`N#Cc1cc(C(F)(F)F)cc2ncn([C@H]3CCC[C@@H](Nc4ncc(C(F)(F)F)c(-c5cnn(CC(F)F)c5)n4)C3)c12` [Example 51, 1-((1S,3R)-3-((4-(1-(2,2-Difluoroethyl)-1H-pyrazol-4-yl)-5-(trifluoromethyl)pyrimidin-2-yl)amino)cyclohexyl)-5-(trifluoromethyl)-1H-benzo[d]imidazole-7-carbonitrile] was tested. Which IC50 did it give?
The IC50 was 50 to 500 nM.

Which IC50 does the source give for `FC(F)Cn1cc(-c2nc(N[C@@H]3CCC[C@H](n4cnc5cc(-c6cn[nH]c6)cnc54)C3)ncc2C(F)(F)F)cn1` [Example 80, N-((1R,3S)-3-(6-(1H-Pyrazol-4-yl)-3H-imidazo[4,5-b]pyridin-3-yl)cyclohexyl)-4-(1-(2,2-difluoroethyl)-1H-pyrazol-4-yl)-5-(trifluoromethyl)pyrimidin-2-amine] here?
The IC50 was under 50 nM.

Which IC50 does the source give for `C=C(C)c1cnc2c(c1)ncn2[C@H]1CCC[C@@H](Nc2ncc(C(F)(F)F)c(-c3cnn(CC(F)F)c3)n2)C1` [Example 78, 4-(1-(2,2-Difluoroethyl)-1H-pyrazol-4-yl)-N-((1R,3S)-3-(6-(prop-1-en-2-yl)-3H-imidazo[4,5-b]pyridin-3-yl)cyclohexyl)-5-(trifluoromethyl)pyrimidin-2-amine] here?
Its IC50 is under 50 nM.

`N#Cc1cnc2c(c1)ncn2[C@H]1CCC[C@@H](Nc2ncc(C#N)c(-c3cnn(CCN4CCOCC4)c3)n2)C1` [Example 60, 3-((1S,3R)-3-((5-Cyano-4-(1-(2-morpholinoethyl)-1H-pyrazol-4-yl)pyrimidin-2-yl)amino)cyclohexyl)-3H-imidazo[4,5-b]pyridine-6-carbonitrile] was tested. Which IC50 did it give?
Its IC50 is 50 to 500 nM.

`Cn1cnc(-c2nc(N[C@@H]3CCC[C@H](n4cnc5cc(C#N)cnc54)C3)ncc2C#N)c1` [Example 61, 3-((1S,3R)-3-((5-Cyano-4-(1-methyl-1H-imidazol-4-yl)pyrimidin-2-yl)amino)cyclohexyl)-3H-imidazo[4,5-b]pyridine-6-carbonitrile] was tested. Which IC50 did it give?
The IC50 was under 50 nM.

Which IC50 does the source give for `N#Cc1cncc2ncn([C@H]3CCC[C@@H](Nc4ncc(C(F)(F)F)c(-c5cnn(CC(F)F)c5)n4)C3)c12` [Example 52, 1-((1S,3R)-3-((4-(1-(2,2-Difluoroethyl)-1H-pyrazol-4-yl)-5-(trifluoromethyl)pyrimidin-2-yl)amino)cyclohexyl)-1H-imidazo[4,5-c]pyridine-7-carbonitrile] here?
The IC50 was under 50 nM.

`Cc1cc(C#N)cc2ncn([C@H]3CCC[C@@H](Nc4ncc(C#N)c(-c5cnn(CC(F)F)c5)n4)C3)c12` [Example 55, 1-((1S,3R)-3-((5-Cyano-4-(1-(2,2-difluoroethyl)-1H-pyrazol-4-yl)pyrimidin-2-yl)amino)cyclohexyl)-7-methyl-1H-benzo[d]imidazole-5-carbonitrile] was tested. Which IC50 did it give?
The IC50 was under 50 nM.

Which IC50 does the source give for `CC(C)n1cc(-c2nc(N[C@@H]3CCC[C@H](n4cnc5cncc(C#N)c54)C3)ncc2C#N)cn1` [Example 33, 1-((1S,3R)-3-((5-Cyano-4-(1-isopropyl-1H-pyrazol-4-yl)pyrimidin-2-yl)amino)cyclohexyl)-1H-imidazo[4,5-c]pyridine-7-carbonitrile] here?
Its IC50 is under 50 nM.

For `N#Cc1cnc(N[C@@H]2CCC[C@H](n3cnc4cncc(Cl)c43)C2)nc1-c1cnn(CC(F)F)c1` [Example 45, 2-(((1R,3S)-3-(7-Chloro-1H-imidazo[4,5-c]pyridin-1-yl)cyclohexyl)amino)-4-(1-(2,2-difluoroethyl)-1H-pyrazol-4-yl)pyrimidine-5-carbonitrile], which IC50 is on record?
The IC50 was under 50 nM.

With `Cc1c(-c2nc(N[C@@H]3CCC[C@H](n4cnc5cc(C#N)cnc54)C3)ncc2C#N)cnn1C` [Example 89, 3-((1S,3R)-3-((5-Cyano-4-(1,5-dimethyl-1H-pyrazol-4-yl)pyrimidin-2-yl)amino)cyclohexyl)-3H-imidazo[4,5-b]pyridine-6-carbonitrile] as the molecule, how does the IC50 read?
Its IC50 is under 50 nM.

`N#Cc1cnc2c(c1)ncn2[C@H]1CCC[C@@H](Nc2ncc(C#N)c(-c3cnn(C4CCOCC4)c3)n2)C1` [Example 63, 3-((1S,3R)-3-((5-Cyano-4-(1-(tetrahydro-2H-pyran-4-yl)-1H-pyrazol-4-yl)pyrimidin-2-yl)amino)cyclohexyl)-3H-imidazo[4,5-b]pyridine-6-carbonitrile] was tested. Which IC50 did it give?
The IC50 was under 50 nM.

How did the IC50 turn out when `N#Cc1ccc2ncn([C@H]3CCC[C@@H](Nc4ncc(C#N)c(-c5cnn(CC(F)F)c5)n4)C3)c2n1` [Example 47, 3-((1S,3R)-3-((5-Cyano-4-(1-(2,2-difluoroethyl)-1H-pyrazol-4-yl)pyrimidin-2-yl)amino)cyclohexyl)-3H-imidazo[4,5-b]pyridine-5-carbonitrile] was run?
The IC50 was under 50 nM.

Reference: US20250353842A1, “BICYCLIC AMINE CDK12 INHIBITORS” (Incyte Corporation, priority 2022, published 2025)
